# Source: US20130158075A1, “HETEROCYCLIC COMPOUNDS AS DGAT1 INHIBITORS” (PIRAMAL ENTERPRISES LIMITED, priority 2010, published 2013)
# Molecular target: T1, hDGAT1 (Homo sapiens, UniProt O75907)
# T1 construct: made in house; host or cells: Sf9 insect cells (baculovirus); microsomal fraction
# T1 sequence (O75907 1-488): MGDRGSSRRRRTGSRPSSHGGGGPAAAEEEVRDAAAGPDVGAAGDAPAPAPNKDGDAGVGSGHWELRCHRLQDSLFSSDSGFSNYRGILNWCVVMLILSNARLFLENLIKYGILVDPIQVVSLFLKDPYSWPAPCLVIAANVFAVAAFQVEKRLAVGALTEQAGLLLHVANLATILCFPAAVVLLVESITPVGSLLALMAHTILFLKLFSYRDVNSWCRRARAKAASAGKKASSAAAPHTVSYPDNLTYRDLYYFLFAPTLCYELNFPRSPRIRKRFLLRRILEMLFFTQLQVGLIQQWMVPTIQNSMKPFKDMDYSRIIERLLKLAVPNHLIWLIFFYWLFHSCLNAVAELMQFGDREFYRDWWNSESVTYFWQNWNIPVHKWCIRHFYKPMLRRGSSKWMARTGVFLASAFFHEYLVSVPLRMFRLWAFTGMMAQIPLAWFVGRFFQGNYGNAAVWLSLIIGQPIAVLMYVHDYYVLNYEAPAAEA
# Assay: In-vitro DGAT1 assay with hDGAT1 microsomes from Sf9 cells (14C oleoyl CoA, scintillation counting)
# Assay type: biochemical
# Conditions: at 1 μM
# Experimental: Sf9 cells were grown in T25 flasks containing Graces's Insect media with 10% FBS with antibiotic (100 units/mL penicillin, 100 μg/mL streptomycin sulphate, 0.25 μg/mL Amptotericin B as Fungizone) grown in a 27° C. incubator.
# hDGAT10RF expression clone (RZPDo839C09146 in pDEST vector) was obtained from RZPD, German Science Center for Genomes research, Germany. hDGAT1 bacmid DNA was obtained by transformation of the hDGAT1 expression clone into DH10Bac E. coli competent cells. Approximately 1 μg of hDGAT1 bacmid DNA was infected into Sf9 cells with Cellfectin (Invitrogen) reagent. Following infection, Sf9 cells were incubated at 27° C. for 30 min. Five hours after infection, the media was replaced with growth media containing antibiotics (100 units/mL penicillin, 100 μg/mL streptomycin sulphate, 0.25 μg/mL Amptotericin B as Fungizone) and incubated at 27° C. for 72 h. The supernatant containing the virus was centrifuged at 1500×g for 5 min, passed through 0.22 μm filter, and subsequently stored at 4° C. The virus was further amplified three more times by re-infection of Sf9 cells and the viral titer was determined by plaque assay.
# Sf9 cells were seeded in spinner flasks on day 0 at a cell density of 1×10^6 and infected on day 1 with hDGAT1 baculovirus at a multiplicity of infection (MOI) of 5 and a cell density of 2×10^6. On day 3 (or 66-72 h), cells were harvested and centrifuged at 2500×g for 10 min. Pellet was resuspended in lysis buffer (100 mM sucrose, 50 mM KCl, 40 mM KH2PO4, 30 mM EDTA, pH 7.2) and passed through 21-gauge needle approximately 10 times. The mixture was centrifuged at 12,000 rpm in a Sigma 12158-H rotor at 4° C. for 30 min. The supernatant was subjected to centrifugation at 35,000 rpm in a Beckman Ti-45 rotor at 4° C. for 1 h. The resultant pellet containing the microsomes wasere resuspended overnight in 1 mL of lysis buffer and total protein concentration was estimated using Bradford Reagent. Microsomes were aliquoted and stored at −80° C.
# Frozen aliquots of hDGAT1 containing microsomes were thawed (5-10 mg/mL total protein) on ice and diluted to a working stock of 1 mg/mL with DGAT Assay Buffer (DAB). The DGAT reaction assay was performed by following the procedure described in U.S. Pat. No. 6,607,893 with some modifications that are described below.
# 1 mL stock solution of DGAT1 substrate mixture contains 5.6 μL of ^14C oleoyl CoA (16.8 nCi) and […] of 1,2-dioleoyl-sn-glycerol (1228.5 μM) 1,2-dioleoyl-sn-glycerol stock (19.5 mM) was prepared by dissolving 25 mg of 1,2-dioleoyl-sn-glycerol (Sigma, US) in 2060 μL of acetone.
# The assay was performed in duplicates in a reaction volume of 100 μL.
# The reaction was started by the addition of 2.5 μL of 1 mg/mL of microsomes (iv) to the mixture of (i), (ii) and (iii), and incubated at 37° C. for 10 min. The reaction was stopped by the addition of 300 μL of Alkaline Ethanol Stop Solution Mix [AESSM; 12.5% of 100% non-denatured ethanol, 10% deionized water, 2.5% 1N NaOH, 75% stop solution (78.4% isopropanol, 19.6% n-heptane, 2% deionized water)] followed by addition of 600 μL of n-heptane. The mixture was vortexed and the triglycerides formed were extracted into the organic heptane phase. 250 μL of the heptane phase was added into 4 mL scintillation cocktail (66.72% toluene, 33.3% TritonX-100, 0.5% PPO, 0.02% POPOP) and counted on a liquid scintillation counter for 1 min. Data was collected and plotted as a function of concentration in nM versus percentage inhibition of hDGAT1 by the compounds of present invention.
row,SMILES,Percentage inhibition of hDGAT1
1,"O=C(Nc1ccc(-c2noc([C@H]3CC[C@H](C(=O)O)CC3)n2)cc1)Nc1cccc(Cl)c1 [Example 225, (1r,4r)-4-(3-(4-(3-(3-Chlorophenyl)ureido)phenyl)-1,2,4-oxadiazol-5-yl)cyclo hexanecarboxylic acid]",++ (>50 % Inhibition)
2,"CC(C)(CCc1ncc(-c2ccc(NC(=O)Nc3cc(F)c(F)c(F)c3)cc2)s1)C(=O)[O-].[Na+] [Example 255A, Sodium salt of 2,2-dimethyl-4-(5-(4-(3-(3,4,5-trifluorophenyl)ureido)phenyl)thiazol-2-yl)butanoate]",++ (>50 % Inhibition)
3,"Cc1ccc(NC(=O)Nc2ccc(-c3noc([C@H]4CC[C@H](C(=O)O)CC4)n3)cc2)cc1 [Example 223, (1r,4r)-4-(3-(4-(3-p-Tolylureido)Phenyl)-1,2,4-oxadiazol-5-yl)cyclohexane carboxylic acid]",+ (20-50% Inhibition)
4,"O=C(Nc1ccc(-c2noc([C@H]3CC[C@H](C(=O)O)CC3)n2)cc1)Nc1ccccc1Cl [Example 219, (1r,4r)-4-(3-(4-(3-(2-Chlorophenyl)ureido)phenyl)-1,2,4-oxadiazol-5-yl)cyclo hexanecarboxylic acid]",+ (20-50% Inhibition)
5,"CC(C)(CC(=O)O)Cc1ncc(-c2ccc(NC(=O)c3ccc(-c4ccccc4)cc3)cc2)s1 [Example 77, 4-(5-(4-Biphenyl-4-ylcarboxamidophenyl)thiazol-2-yl)-3,3-dimethylbutanoic acid]",++ (>50 % Inhibition)

# Further lines, results first:
row,Percentage inhibition of hDGAT1,SMILES
1,+ (20-50% Inhibition),"CC(=O)NC(=O)CC1CCC(c2ncc(-c3ccc(NC(=O)c4c(F)cccc4F)cc3)s2)CC1 (stereo not drawn) [Example 403, N-(4-(2-(4-(2-Acetamido-2-oxoethyl)cyclohexyl)thiazol-5-yl)phenyl)-2,6-difluoro benzamide]"
2,++ (>50 % Inhibition),"O=C(Nc1ccc(-c2cnc(CNS(=O)(=O)C(F)(F)F)s2)cc1)NC1CCCCC1 [Example 548, N-((5-(4-(3-Cyclohexylureido)phenyl)thiazol-2-yl)methyl)-1,1,1-trifluoro methanesulfonamide]"

# Same assay, conditions: read-out: Percentage inhibition of hDGAT1
row,SMILES,inhibition at 1 µM [%]
1,"O=C(Nc1ccc(-c2cnc(C3CCC(C(=O)O)CC3)s2)cc1)Nc1cc(F)cc(F)c1 (stereo not drawn) [Example 182, 4-(5-(4-(3-(3,5-Difluorophenyl)ureido)phenyl)thiazol-2-yl)cyclohexane carboxylic acid]",> 50
2,"O=C(Nc1ccc(-c2cnc(C3CCC(C(=O)O)CC3)s2)cc1)Nc1cccc(Cl)c1 (stereo not drawn) [Example 144, 4-(5-(4-(3-(3-Chlorophenyl)ureido)phenyl)thiazol-2-yl)cyclohexane carboxylic acid]",> 50
3,"O=C(Nc1ccc(-c2cnc(C3CCC(C(=O)O)CC3)s2)cc1)Nc1c(Cl)cccc1C(F)(F)F (stereo not drawn) [Example 158, 4-(5-(4-(3-(2-Chloro-6-(trifluoromethyl)phenyl)ureido)phenyl)thiazol-2-yl)cyclohexanecarboxylic acid]",> 50
4,"O=C(Nc1ccc(-c2cnc(C3CCC(C(=O)O)CC3)s2)cc1)c1ncc(-c2ccccc2)o1 (stereo not drawn) [Example 198, 4-(5-(4-(5-Phenyloxazole-2-carboxamido)phenyl)thiazol-2-yl)cyclohexane carboxylic acid]",> 50
5,"O=C(O)CCCc1nnc(-c2ccc(NC(=O)c3ccc(OC(F)(F)F)cc3)cc2)s1 [Example 292, 4-(5-(4-(4-(Trifluoromethoxy)benzamido)phenyl)-1,3,4-thiadiazol-2-yl)butanoic acid]",20 to 50
6,"CCCCCc1ccc(C(=O)Nc2ccc(-c3cnc(CCCC(=O)O)s3)cc2)cc1 [Example 59, 4-(5-(4-(4-Pentylbenzamido)phenyl)thiazol-2-yl)butanoic acid]",> 50
7,"O=C(Nc1ccc(-c2cnc(C3CCC(C(=O)O)CC3)s2)cc1)Nc1c(F)cccc1C(F)(F)F (stereo not drawn) [Example 176, 4-(5-(4-(3-(2-Fluoro-6-(trifluoromethyl)phenyl)ureido)phenyl)thiazol-2-yl)cyclohexanecarboxylic acid]",20 to 50
8,"CC(C)(CCc1ncc(-c2ccc(NC(=O)NC3CCCCC3)cc2)s1)C(=O)O [Example 94, 4-(5-(4-(3-Cyclohexylureido)phenyl)thiazol-2-yl)-2,2-dimethyl butanoic acid]",> 50

# Results, then the molecule that gave them:
row,inhibition at 1 µM [%],SMILES
1,> 50,"Cc1noc(CC2CCC(c3ncc(-c4ccc(NC(=O)Nc5cc(F)cc(F)c5)cc4)s3)CC2)n1 (stereo not drawn) [Example 392, 1-(3,5-Difluorophenyl)-3-(4-(2-(4-((3-methyl-1,2,4-oxadiazol-5-yl)methyl)cyclohexyl)thiazol-5-yl)phenyl)urea]"
2,> 50,"O=C(O)CC1CCC(c2ncc(-c3ccc(NC(=O)Nc4ccc(F)cc4F)cc3)s2)CC1 (stereo not drawn) [Example 362, 2-(4-(5-(4-(3-(2,4-Difluorophenyl)ureido)phenyl)thiazol-2-yl)cyclohexyl)acetic acid]"
3,20 to 50,"O=C(Nc1ccc(-c2cnc(C3CCN(S(=O)(=O)C(F)(F)F)CC3)s2)cc1)Nc1ccccc1Cl [Example 484, 1-(2-Chlorophenyl)-3-(4-(2-(1-((trifluoromethyl)sulfonyl)piperidin-4-yl)thiazol-5-yl)phenyl)urea]"
4,> 50,"Cc1nnc(CC2CCC(c3ncc(-c4ccc(NC(=O)Nc5cc(F)c(F)cc5F)cc4)s3)CC2)s1 (stereo not drawn) [Example 414, 1-(4-(2-(4-((5-Methyl-1,3,4-thiadiazol-2-yl)methyl)cyclohexyl)thiazol-5-yl)phenyl)-3-(2,4,5-trifluorophenyl)urea]"
5,> 50,"O=C(O)CC1CCC(c2ncc(-c3ccc(NC(=O)c4c(F)cccc4C(F)(F)F)cc3)s2)CC1 (stereo not drawn) [Example 366, 2-(4-(5-(4-(2-Fluoro-6-(trifluoromethyl)benzamido)phenyl)thiazol-2-yl)cyclohexyl)acetic acid]"
6,> 50,"O=C(O)CC1CCC(c2ncc(-c3ccc(NC(=O)Nc4ccccc4Cl)cc3)s2)CC1 (stereo not drawn) [Example 346, 2-(4-(5-(4-(3-(2-Chlorophenyl)ureido)phenyl)thiazol-2-yl)cyclohexyl)acetic acid]"
7,> 50,"O=C(O)CC1CCC(c2ncc(-c3ccc(NC(=O)Nc4cc(F)c(F)cc4F)cc3)s2)CC1 (stereo not drawn) [Example 358, 2-(4-(5-(4-(3-(2,4,5-Trifluorophenyl)ureido)phenyl)thiazol-2-yl)cyclohexyl)acetic acid]"
8,> 50,"CC(C(=O)O)N1CCC(c2ncc(-c3ccc(NC(=O)Nc4cc(F)c(F)cc4F)cc3)s2)CC1 (stereo not drawn) [Example 451, 2-(4-(5-(4-(3-(2,4,5-Trifluorophenyl)ureido)phenyl)thiazol-2-yl)piperidin-1-yl)propanoic acid]"
9,> 50,"Cc1noc(CC2CCC(c3ncc(-c4ccc(NC(=O)Nc5ccc(F)cc5F)cc4)s3)CC2)n1 (stereo not drawn) [Example 394, 1-(2,4-Difluorophenyl)-3-(4-(2-(4-((3-methyl-1,2,4-oxadiazol-5-yl)methyl)cyclohexyl)thiazol-5-yl)phenyl)urea]"
